Test results from patent US9663525B2, “Pyrazolopyrimidinyl inhibitors of ubiquitin-activating enzyme” (Millennium Pharmaceuticals, Inc., priority 2012, dated 2017).

Molecular target: recombinant human UAE (Homo sapiens (Human), UniProt P22314)
Experiment: Ubiquitin Activating Enzyme (UAE) HTRF assay, human UAE
Method: After incubation for 120 minutes, quantification of the FRET is performed on the Pherostar (BMG).
For compounds whose values are marked with an asterisk (*), mouse UAE was used. For all other compounds, human UAE was used.

recombinant human UAE, sequence (P22314 whole entry): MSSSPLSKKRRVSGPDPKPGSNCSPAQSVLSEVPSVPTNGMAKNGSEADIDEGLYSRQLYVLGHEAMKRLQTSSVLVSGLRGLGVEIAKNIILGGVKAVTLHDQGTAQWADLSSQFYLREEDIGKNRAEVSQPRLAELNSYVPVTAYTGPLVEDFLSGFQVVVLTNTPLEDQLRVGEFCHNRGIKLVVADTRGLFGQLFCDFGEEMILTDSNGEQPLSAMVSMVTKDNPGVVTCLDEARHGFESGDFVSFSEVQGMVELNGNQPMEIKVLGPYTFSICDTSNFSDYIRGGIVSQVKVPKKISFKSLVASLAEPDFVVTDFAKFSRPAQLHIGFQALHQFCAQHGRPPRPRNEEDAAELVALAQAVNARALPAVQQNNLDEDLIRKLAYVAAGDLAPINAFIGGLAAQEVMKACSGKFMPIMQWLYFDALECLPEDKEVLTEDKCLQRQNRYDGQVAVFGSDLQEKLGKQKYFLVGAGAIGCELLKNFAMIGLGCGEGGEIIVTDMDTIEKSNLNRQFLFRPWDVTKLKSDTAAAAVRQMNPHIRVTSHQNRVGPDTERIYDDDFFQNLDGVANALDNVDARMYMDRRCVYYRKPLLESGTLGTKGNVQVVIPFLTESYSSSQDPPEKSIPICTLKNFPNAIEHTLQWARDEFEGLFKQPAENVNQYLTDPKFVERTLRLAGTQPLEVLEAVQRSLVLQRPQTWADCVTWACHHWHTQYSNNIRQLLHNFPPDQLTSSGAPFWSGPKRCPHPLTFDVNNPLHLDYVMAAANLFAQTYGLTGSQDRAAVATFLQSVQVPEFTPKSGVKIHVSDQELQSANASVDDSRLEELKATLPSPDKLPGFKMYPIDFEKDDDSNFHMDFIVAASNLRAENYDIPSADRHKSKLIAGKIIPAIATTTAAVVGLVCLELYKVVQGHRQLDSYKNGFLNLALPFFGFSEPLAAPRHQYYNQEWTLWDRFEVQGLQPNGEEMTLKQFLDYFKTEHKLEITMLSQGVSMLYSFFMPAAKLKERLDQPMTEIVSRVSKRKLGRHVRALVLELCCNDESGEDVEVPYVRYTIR

IC50 | Structure (SMILES)
< 10 nM | COc1ccc(C(F)(F)F)cc1-c1cc2nccc(N[C@@H]3C[C@H](COS(N)(=O)=O)[C@@H](O)[C@H]3O)n2n1 (racemic) [Compound I-065, (rac)-((1R,2R,3S,4R)-2,3-Dihydroxy-4-((2-(2-methoxy-5-(trifluoromethyl)phenyl)-pyrazolo[1,5-a]pyrimidin-7-yl)amino)cyclopentyl)methyl rel-sulfamate]
< 10 nM | COc1ccc(OC(F)(F)F)cc1-c1cc2nccc(N[C@@H]3C[C@H](COS(N)(=O)=O)[C@@H](O)[C@H]3O)n2n1 (racemic) [Compound I-066, (rac)-((1R,2R,3S,4R)-2,3-Dihydroxy-4-((2-(2-methoxy-5-(trifluoromethoxy)-phenyl)pyrazolo[1,5-a]pyrimidin-7-yl)amino)cyclopentyl)methyl rel-sulfamate]
10 to 100 nM | NS(=O)(=O)OC[C@H]1C[C@@H](Nc2ccnc3cc(-c4ccccc4Oc4ccccc4)nn23)[C@H](O)[C@@H]1O (racemic) [Compound I-068, (rac)-((1R,2R,3S,4R)-2,3-dihydroxy-4-(2-(2-phenoxyphenyl)pyrazolo[1,5-a]pyrimidin-7-ylamino)cyclopentyl)methyl rel-sulfamate]
10 to 100 nM | NS(=O)(=O)OC[C@H]1C[C@@H](Nc2ccnc3cc(-c4cccc(Cc5ccccc5)c4)nn23)[C@H](O)[C@@H]1O (racemic) [Compound I-069, (rac)-((1R,2R,3S,4R)-4-(2-(3-benzylpenyl)pyrazolo[1,5-a]pyrimidin-7-ylamino)-2,3-dihydroxycyclopentyl)methyl rel-sulfamate]
< 10 nM | COc1cc(F)ccc1-c1cc2nccc(N[C@@H]3C[C@H](COS(N)(=O)=O)[C@@H](O)[C@H]3O)n2n1 (racemic) [Compound I-070, (rac)-((1R,2R,3S,4R)-4-(2-(4-fluoro-2-methoxyphenyl)pyrazolo[1,5-a]pyrimidin-7-ylamino)-2,3-dihydroxycyclopentyl)methyl rel-sulfamate]
< 10 nM | NS(=O)(=O)OC[C@H]1C[C@@H](Nc2ccnc3cc(-c4csc5ccc(Cl)cc45)nn23)[C@H](O)[C@@H]1O (racemic) [Compound I-071, (rac)-((1R,2R,3S,4R)-4-(2-(5-chlorobenzo[b]thiophen-3-yl)pyrazolo[1,5-a]pyrimidin-7-ylamino)-2,3-dihydroxycyclopentyl)methyl rel-sulfamate]
< 10 nM | COc1ccccc1-c1cc2nccc(N[C@@H]3C[C@H](COS(N)(=O)=O)[C@@H](O)[C@H]3O)n2n1 (racemic) [Compound I-072, (rac)-((1R,2R,3S,4R)-2,3-dihydroxy-4-(2-(2-methoyphenyl)pyrazolo[1,5-a]pyrimidin-7-ylamino)cyclopentyl)methyl rel-sulfamate]
10 to 100 nM | NS(=O)(=O)OC[C@H]1C[C@@H](Nc2ccnc3cc(-c4cccc(C(=O)c5ccccc5)c4)nn23)[C@H](O)[C@@H]1O (racemic) [Compound I-073, (rac)-((1R,2R,3S,4R)-4-(2-(3-benzoylphenyl)pyrazolo[1,5-a]pyrimidin-7-ylamino)-2,3-dihydroxycyclopentyl)methyl rel-sulfamate]
10 to 100 nM | NS(=O)(=O)OC[C@H]1C[C@@H](Nc2ccnc3cc(-c4ccc5[nH]ccc5c4)nn23)[C@H](O)[C@@H]1O (racemic) [Compound I-074, (rac)-[(1R,2R,3S,4R)-2,3-dihydroxy-4-{[2-(1H-indol-5-yl)pyrazolo[1,5-a]pyrimidin-7-yl]amino}cyclopentyl]methyl rel-sulfamate]
< 10 nM | NS(=O)(=O)OC[C@H]1C[C@@H](Nc2ccnc3cc(-c4cccc5[nH]ccc45)nn23)[C@H](O)[C@@H]1O (racemic) [Compound I-075, (rac)-((1R,2R,3S,4R)-4-(2-(1H-indol-4-yl)pyrazolo[1,5-a]pyrimidin-7-ylamino)-2,3-dihydroxycyclopentyl)methyl rel-sulfamate]
< 10 nM | NS(=O)(=O)OC[C@H]1C[C@@H](Nc2ccnc3cc(-c4cccc(N5CCCCC5)c4)nn23)[C@H](O)[C@@H]1O (racemic) [Compound I-077, (rac)-((1R,2R,3S,4R)-2,3-dihydroxy-4-(2-(3-(piperidin-1-yl)phenyl)pyrazolo[1,5-a]pyrimidin-7-ylamino)cyclopentyl)methyl rel-sulfamate]
< 10 nM | NS(=O)(=O)OC[C@H]1C[C@@H](Nc2ccnc3cc(-c4cccc(N5CCOCC5)c4)nn23)[C@H](O)[C@@H]1O (racemic) [Compound I-078, (rac)-((1R,2R,3S,4R)-2,3-dihydroxy-4-(2-(3-morpholinophenyl)pyrazolo-[1,5-a]pyrimidin-7-ylamino)cyclopentyl)methyl rel-sulfamate]
10 to 100 nM | NS(=O)(=O)OC[C@H]1C[C@@H](Nc2ccnc3cc(-c4ccccc4SC(F)(F)F)nn23)[C@H](O)[C@@H]1O (racemic) [Compound I-079, (rac)-((1R,2R,3S,4R)-2,3-dihydroxy-4-(2-(2-(trifluoromethylthio)phenyl)pyrazolo[1,5-a]pyrimidin-7-ylamino)cyclopentyl)methyl rel-sulfamate]
10 to 100 nM | NS(=O)(=O)OC[C@H]1C[C@@H](Nc2ccnc3cc(-c4ccc(SC(F)(F)F)cc4)nn23)[C@H](O)[C@@H]1O (racemic) [Compound I-080, (rac)-((1R,2R,3S,4R)-2,3-dihydroxy-4-(2-(4-(trifluoromethylthio)phenyl)pyrazolo[1,5-a]pyrimidin-7-ylamino)cyclopentyl)methyl rel-sulfamate]
< 10 nM | NS(=O)(=O)OC[C@H]1C[C@@H](Nc2ccnc3cc(-c4csc5ccc(F)cc45)nn23)[C@H](O)[C@@H]1O (racemic) [Compound I-081, (rac)-((1R,2R,3S,4R)-4-(2-(5-fluorobenzo[b]thiophen-3-yl)pyrazolo[1,5-a]pyrimidin-7-ylamino)-2,3-dihydroxycyclopentyl)methyl rel-sulfamate]
< 10 nM | C#Cc1cccc(-c2cc3nccc(N[C@@H]4C[C@H](COS(N)(=O)=O)[C@@H](O)[C@H]4O)n3n2)c1 (racemic) [Compound I-083, (rac)-[(1R,2R,3S,4R)-4-{[2-(3-ethynylphenyl)pyrazolo[1,5-a]pyrimidin-7-yl]amino}-2,3-dihydroxycyclopentyl]methyl rel-sulfamate]
< 10 nM | CCOC(C)(C)c1cccc(-c2cc3nccc(N[C@@H]4C[C@H](COS(N)(=O)=O)[C@@H](O)[C@H]4O)n3n2)c1 (racemic) [Compound I-084, (rac)-((1R,2R,3S,4R)-4-(2-(3-(2-ethoxypropan-2-yl)phenyl)pyrazolo[1,5-a]pyrimidin-7-ylamino)-2,3-dihydroxycyclopentyl)methyl rel-sulfamate]
< 10 nM | NS(=O)(=O)OC[C@H]1C[C@@H](Nc2ccnc3cc(-c4ccc5c(c4)C(=O)c4ccccc4-5)nn23)[C@H](O)[C@@H]1O (racemic) [Compound I-085, (rac)-((1R,2R,3S,4R)-2,3-dihydroxy-4-(2-(9-oxo-9H-fluoren-2-yl)pyrazolo[1,5-a]pyrimidin-7-ylamino)cyclopentyl)methyl rel-sulfamate]
< 10 nM | NS(=O)(=O)OC[C@H]1C[C@@H](Nc2ccnc3cc(-c4cc5ccccc5o4)nn23)[C@H](O)[C@@H]1O (racemic) [Compound I-086, (rac)-((1R,2R,3S,4R)-4-(2-(benzofuran-2-yl)pyrazolo[1,5-a]pyrimidin-7-ylamino)-2,3-dihydroxycyclopentyl)methyl rel-sulfamate]
< 10 nM | NS(=O)(=O)OC[C@H]1C[C@@H](Nc2ccnc3cc(-c4cccc(N5CCCC5=O)c4)nn23)[C@H](O)[C@@H]1O (racemic) [Compound I-087, (rac)-((1R,2R,3S,4R)-2,3-dihydroxy-4-(2-(3-(2-oxopyrrolidin-1-yl)phenyl)pyrazolo[1,5-a]pyrimidin-7-ylamino)cyclopentyl)methyl rel-sulfamate]
10 to 100 nM | NS(=O)(=O)OC[C@H]1C[C@@H](Nc2ccnc3cc(-c4cc5ccc(Cl)cc5s4)nn23)[C@H](O)[C@@H]1O (racemic) [Compound I-088, (rac)-((1R,2R,3S,4R)-4-(2-(6-chlorobenzo[b]thiophen-2-yl)pyrazolo[1,5-a]pyrimidin-7-ylamino)-2,3-dihydroxycyclopentyl)methyl rel-sulfamate]
< 10 nM | CCCOC(C)(C)c1cccc(-c2cc3nccc(N[C@@H]4C[C@H](COS(N)(=O)=O)[C@@H](O)[C@H]4O)n3n2)c1 (racemic) [Compound I-090, (rac)-((1R,2R,3S,4R)-2,3-dihydroxy-4-(2-(3-(2-propoxypropan-2-yl)phenyl)pyrazolo[1,5-a]pyrimidin-7-ylamino)cyclopentyl)methyl rel-sulfamate]
< 10 nM | NS(=O)(=O)OC[C@H]1C[C@@H](Nc2ccnc3cc(-c4coc5ccc(Cl)cc45)nn23)[C@H](O)[C@@H]1O (racemic) [Compound I-092, (rac)-((1R,2R,3S,4R)-4-(2-(5-chlorobenzofuran-3-yl)pyrazolo[1,5-a]pyrimidin-7-ylamino)-2,3-dihydroxycyclopentyl)methyl rel-sulfamate]
< 10 nM | NS(=O)(=O)OC[C@H]1C[C@@H](Nc2ccnc3cc(-c4ccc5c(c4)oc4ccccc45)nn23)[C@H](O)[C@@H]1O (racemic) [Compound I-093, (rac)-((1R,2R,3S,4R)-4-(2-(dibenzo[b,d]furan-3-yl)pyrazolo[1,5-a]pyrimidin-7-ylamino)-2,3-dihydroxycyclopentyl)methyl rel-sulfamate]
10 to 100 nM | CCc1ccc2sc(-c3cc4nccc(N[C@@H]5C[C@H](COS(N)(=O)=O)[C@@H](O)[C@H]5O)n4n3)cc2c1 (racemic) [Compound I-095, (rac)-((1R,2R,3S,4R)-4-(2-(5-ethylbenzo[b]thiophen-2-yl)pyrazolo[1,5-a]pyrimidin-7-ylamino)-2,3-dihydroxycyclopentyl)methyl rel-sulfamate]
< 10 nM | NS(=O)(=O)OC[C@H]1C[C@@H](Nc2ccnc3cc(-c4cncc(-c5ccccc5)n4)nn23)[C@H](O)[C@@H]1O (racemic) [Compound I-121, (rac)-((1R,2R,3S,4R)-2,3-dihydroxy-4-{[2-(6-phenylpyrazin-2-yl)pyrazolo[1,5-a]pyrimidin-7-yl]amino}cyclopentyl)methyl rel-sulfamate]
